Molecules are shown by their SMILES.

The target of one assay is T1, human CTPS1 (Homo sapiens, UniProt P17812).
T1 construct: purchased Proteros biostructures GmbH
T1 sequence (P17812 1-591): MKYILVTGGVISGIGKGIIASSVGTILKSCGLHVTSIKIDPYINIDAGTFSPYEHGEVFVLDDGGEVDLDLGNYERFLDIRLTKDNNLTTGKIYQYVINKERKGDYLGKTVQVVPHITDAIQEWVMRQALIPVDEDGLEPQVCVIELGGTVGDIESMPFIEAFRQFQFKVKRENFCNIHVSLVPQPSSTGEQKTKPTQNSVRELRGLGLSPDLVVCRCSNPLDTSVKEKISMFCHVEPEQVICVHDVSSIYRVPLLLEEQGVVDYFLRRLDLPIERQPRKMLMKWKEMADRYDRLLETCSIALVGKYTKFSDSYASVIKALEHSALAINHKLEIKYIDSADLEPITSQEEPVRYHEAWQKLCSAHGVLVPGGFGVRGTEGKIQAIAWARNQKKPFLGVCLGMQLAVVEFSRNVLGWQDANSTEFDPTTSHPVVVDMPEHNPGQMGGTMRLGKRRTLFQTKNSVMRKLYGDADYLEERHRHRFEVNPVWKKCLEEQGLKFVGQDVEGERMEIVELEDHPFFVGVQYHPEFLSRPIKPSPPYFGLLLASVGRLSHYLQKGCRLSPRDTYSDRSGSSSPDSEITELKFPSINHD
Briefly: Human CTPS1 enzyme inhibition (ADP-Glo Max assay). In kind it is biochemical. As to conditions: Table 17, 25° C., read-out: CTPS1 (Human CTPS1 Enzyme Inhibition data grouped by potency range). On the procedure:
The enzyme inhibitory activities of compounds invented against the target of interest were determined using the ADP-Glo™ Max assay (Promega, UK). Assays for human CTPS1 were performed in 1× assay buffer containing 50 mM Tris, 10 mM MgCl2, 0.01% Tween-20, pH to 8.0 accordingly. Finally, immediately before use, L-cysteine was added to the 1× assay buffer to a final concentration of 2 mM. All reagents are from Sigma-Aldrich unless specified otherwise.
3× human CTPS1 protein was prepared in 1× assay buffer to the final working protein concentration required for the reaction. A 2 uL volume per well of 3× human CTPS1 protein was mixed with 2 uL per well of 3× test compound (compound prepared in 1× assay buffer to an appropriate final 3× compound concentration respective to the concentration response curve designed for the compounds under test) for 10 minutes at 25° C. […] ADP-Glo™ Max reagent was added for 60 minutes (6 uL per well) and subsequently ADP-Glo™ Max development reagent was added for 60 minutes (12 uL per well) prior to signal detection in a microplate reader (EnVision® Multilabel Reader, Perkin Elmer). Following each reagent addition over the course of the assay, assay plates were pulse centrifuged for 30 seconds at 500 rpm.
In all cases, the enzyme converts ATP to ADP and the ADP-Glo™ Max reagent subsequently depletes any remaining endogenous ATP in the reaction system. The ADP-Glo™ Max detection reagent converts the ADP that has been enzymatically produced back into ATP and using ATP as a substrate together with luciferin for the enzyme luciferase, light is generated which produces a detectable luminescence. […] The percentage inhibition produced by each concentration of compound was calculated using the equation shown below: […]
(ADP-Glo first removes unused ATP, then detects ADP through luciferase.)
Consider `CS(=O)(=O)Nc1nc(CC(=O)Nc2ccc(-c3ccccc3)cc2)cs1` [T1, N-([1,1′-biphenyl]-4-yl)-2-(2-(methylsulfonamido)thiazol-4-yl)acetamide], for which the IC50 was in the range of 1 to 10 µM. On to `CCC(CC)(C(=O)Nc1ccc(-c2cnccn2)cn1)c1csc(NS(=O)(=O)C2CC2)n1` [T3, 2-(2-(cyclopropanesulfonamido)thiazol-4-yl)-2-ethyl-N-(5-(pyrazin-2-yl)pyridin-2-yl)butanamide], for which the IC50 lay within 0.1 to 1 µM. The same measure, in the same setting: the same measure for `CC(C)(C(=O)Nc1ccc(-c2ncccn2)cc1)c1csc(NS(=O)(=O)C2CC2)n1` [T4, 2-(2-(cyclopropanesulfonamido)thiazol-4-yl)-2-methyl-N-(4-(pyrimidin-2-yl)phenyl)propanamide]: 1 to 10 µM; for `CC(C)C(C(=O)Nc1ccc(-c2cncnc2)cc1)c1csc(NS(=O)(=O)C2CC2)n1` (centres unmarked) [T11, 2-(2-(cyclopropanesulfonamido)thiazol-4-yl)-3-methyl-N-(4-(pyrimidin-5-yl)phenyl)butanamide]: 0.1 to 1 µM. On the same count and under the same terms, as for `COc1cncc(-c2ccc(NC(=O)C(C)(C)c3csc(NS(=O)(=O)C4CC4)n3)cc2)c1` [T15, 2-(2-(cyclopropanesulfonamido)thiazol-4-yl)-N-(4-(5-methoxypyridin-3-yl)phenyl)-2-methylpropanamide], the figure is 0.1 to 1 µM. Same read-out and setting: the same measure for `O=C(Cc1csc(NS(=O)(=O)C2CC2)n1)Nc1ccc(-c2cccnc2)cc1Cl` [T16, N-(2-chloro-4-(pyridin-3-yl)phenyl)-2-(2-(cyclopropanesulfonamido)thiazol-4-yl)acetamide]: 0.1 to 1 µM; for `Cc1sc(NS(=O)(=O)C2CC2)nc1C(C)(C)C(=O)Nc1ccc(-c2cncc(C(F)(F)F)n2)cc1` [T17, 2-(2-(cyclopropanesulfonamido)-5-methylthiazol-4-yl)-2-methyl-N-(4-(6-(trifluoromethyl)pyrazin-2-yl)phenyl)propanamide]: 0.1 to 1 µM; for `CC(C)(C(=O)Nc1ccc(-c2cncnc2)cc1)c1csc(NS(=O)(=O)C2CC2)n1` [T18, 2-(2-(cyclopropanesulfonamido)thiazol-4-yl)-2-methyl-N-(4-(pyrimidin-5-yl)phenyl)propanamide]: below 0.1 µM. Regarding `CN(C)C(=O)c1cncc(-c2ccc(NC(=O)C(C)(C)c3csc(NS(=O)(=O)C4CC4)n3)cc2)n1` [T19, 6-(4-(2-(2-(cyclopropanesulfonamido)thiazol-4-yl)-2-methylpropanamido)phenyl)-N,N-dimethylpyrazine-2-carboxamide], the IC50 was in the range of 0.1 to 1 µM. The same measure, in the same setting: the same measure for `CC(C)(C(=O)Nc1ncc(-c2cncc(C#N)c2)cn1)c1csc(NS(=O)(=O)C2CC2)n1` [T20, N-(5-(5-cyanopyridin-3-yl)pyrimidin-2-yl)-2-(2-(cyclopropanesulfonamido)thiazol-4-yl)-2-methylpropanamide]: 0.1 to 1 µM; for `O=C(Cc1nc(NS(=O)(=O)C2CC2)sc1Cl)Nc1ccc(-c2ccccc2)cc1` [T21, N-([1,1′-biphenyl]-4-yl)-2-(5-chloro-2-(cyclopropanesulfonamido)thiazol-4-yl)acetamide]: 1 to 10 µM; for `C#Cc1cncc(-c2ccc(NC(=O)C(CC)c3csc(NS(=O)(=O)C4CC4)n3)cc2)n1` (centres unmarked) [T22, 2-(2-(cyclopropanesulfonamido)thiazol-4-yl)-N-(4-(6-ethynylpyrazin-2-yl)phenyl)butanamide]: below 0.1 µM. The same measure, in the same setting: the same measure for `CC(C(=O)Nc1ccc(-c2cccnc2)nc1)c1csc(NS(=O)(=O)C2CC2)n1` (centres unmarked) [T27]: 0.1 to 1 µM; for `CCC(C(=O)Nc1ccc(-c2cncc(OC)n2)cc1)c1csc(NS(=O)(=O)C2CC2)n1` (centres unmarked) [T33]: below 0.1 µM. Still for that read-out and setting: as for `CC(C)(C(=O)Nc1ccc(-c2cnccn2)c(F)c1)c1csc(NS(=O)(=O)C2CC2)n1` [T39], the figure is 0.1 to 1 µM; as for `CC(C)(C(=O)Nc1ccc(-c2cccnc2)cc1Cl)c1csc(NS(=O)(=O)C2CC2)n1` [T41], 0.1 to 1 µM. In the case of `COc1cncc(-c2ccc(NC(=O)C(OC)c3csc(NS(=O)(=O)C4CC4)n3)cc2)n1` (centres unmarked) [T57], the IC50 was below 0.1 µM.

As to `CC(C)OC(C(=O)Nc1ccc(-c2cncc(Cl)c2)cc1)c1csc(NS(=O)(=O)C2CC2)n1` (centres unmarked) [T58], the IC50 was below 0.1 µM.

`COCCC(C(=O)Nc1ccc(-c2cncc(C(F)(F)F)n2)cn1)c1csc(NS(=O)(=O)C2CC2)n1` (centres unmarked) [T59]: the IC50 is below 0.1 µM. Still for that read-out and setting: as for `CCC(C(=O)Nc1ccc(-c2ccnnc2)cc1)c1csc(NS(=O)(=O)C2CC2)n1` (centres unmarked) [T69], the figure is 1 to 10 µM; as for `CCC(C(=O)Nc1ccc(-c2cnccn2)cc1)c1csc(NS(=O)(=O)C2CC2)n1` (centres unmarked) [T70], 0.1 to 1 µM; as for `COCCC(C(=O)Nc1ccc(-c2cncc(Cl)c2)cc1)c1csc(NS(=O)(=O)C2CC2)n1` (centres unmarked) [T71], below 0.1 µM. Still for that read-out and setting: as for `CCC(C(=O)Nc1ccc(-c2cncc(C(F)(F)F)n2)cc1)c1csc(NS(=O)(=O)C2CC2)n1` (centres unmarked) [T73], the figure is below 0.1 µM; as for `CC(C)C(C(=O)Nc1ccc(-c2cnccn2)cc1)c1csc(NS(=O)(=O)C2CC2)n1` (centres unmarked) [T74], 0.1 to 1 µM; as for `CCCOc1cncc(-c2ccc(NC(=O)C(CC)c3csc(NS(=O)(=O)C4CC4)n3)cc2)n1` (centres unmarked) [T75], below 0.1 µM.

Staying with this assay, now noted: Table 18, additional potency data, 25° C., read-out: CTPS1 (Human CTPS1 Enzyme Inhibition data grouped by potency range).
In the case of `CCOc1cncc(-c2ccc(NC(=O)C(OC)c3csc(NS(=O)(=O)C4CC4)n3)cc2)n1` (single isomer, unassigned) [T330, 2-(2-(cyclopropanesulfonamido)thiazol-4-yl)-N-(4-(6-ethoxypyrazin-2-yl)phenyl)-2-methoxyacetamide], the IC50 is below 0.1 µM. On the same count and under the same terms, the same measure for `CCOc1cncc(-c2ccc(NC(=O)C(OC)c3csc(NS(=O)(=O)C4CC4)n3)cc2)n1` (single isomer, unassigned) [T331, 2-(2-(cyclopropanesulfonamido)thiazol-4-yl)-N-(4-(6-ethoxypyrazin-2-yl)phenyl)-2-methoxyacetamide]: below 0.1 µM; for `CCOc1cncc(-c2ccc(NC(=O)C(CC)c3csc(NS(=O)(=O)C4CC4)n3)c(F)c2)n1` (single isomer, unassigned) [T412, 2-(2-(cyclopropanesulfonamido)thiazol-4-yl)-N-(4-(6-ethoxypyrazin-2-yl)-2-fluorophenyl)butanamide]: below 0.1 µM. Take `CCOc1cncc(-c2ccc(NC(=O)C(CC)c3csc(NS(=O)(=O)C4CC4)n3)c(F)c2)n1` (single isomer, unassigned) [T413, 2-(2-(cyclopropanesulfonamido)thiazol-4-yl)-N-(4-(6-ethoxypyrazin-2-yl)-2-fluorophenyl)butanamide]: the IC50 is below 0.1 µM.

For `CCC(C(=O)Nc1ccc(-c2cncc(C(F)(F)F)n2)cn1)c1csc(NS(=O)(=O)C2CC2)n1` (single isomer, unassigned) [T414, 2-(2-(cyclopropanesulfonamido)thiazol-4-yl)-N-(5-(6-(trifluoromethyl)pyrazin-2-yl)pyridin-2-yl)butanamide], the IC50 was below 0.1 µM. In the case of `CCC(C(=O)Nc1ccc(-c2cncc(C(F)(F)F)c2)cc1F)c1csc(NS(=O)(=O)C2CC2)n1` (single isomer, unassigned) [T415, 2-(2-(cyclopropanesulfonamido)thiazol-4-yl)-N-(2-fluoro-4-(5-(trifluoromethyl)pyridin-3-yl)phenyl)butanamide], the IC50 was 0.1 to 1 µM. `CCC(C(=O)Nc1ccc(-c2cncc(C(F)(F)F)c2)cc1F)c1csc(NS(=O)(=O)C2CC2)n1` (single isomer, unassigned) [T416, 2-(2-(cyclopropanesulfonamido)thiazol-4-yl)-N-(2-fluoro-4-(5-(trifluoromethyl)pyridin-3-yl)phenyl)butanamide]: the IC50 was below 0.1 µM. Same read-out and setting: the same measure for `CCOc1cncc(-c2cnc(NC(=O)C(CC)c3csc(NS(=O)(=O)C4CC4)n3)c(F)c2)n1` (single isomer, unassigned) [T456]: below 0.1 µM; for `CCC(C(=O)Nc1ccc(-c2cncc(C(F)(F)F)n2)cc1F)c1csc(NS(=O)(=O)C2CC2)n1` (single isomer, unassigned) [T458]: below 0.1 µM; for `COC(C(=O)Nc1ccc(-c2cncc(C(F)(F)F)n2)cc1F)c1csc(NS(=O)(=O)C2CC2)n1` (single isomer, unassigned) [T459]: below 0.1 µM.

The record behind these values is patent publication US11655246B2, “Aminothiazole compounds as inhibitors of CTPS1” (STEP PHARMA S.A.S., priority 2017, dated 2023).
